Reference: publication PMC5762859, “Distribution analysis of epertinib in brain metastasis of HER2-positive breast cancer by imaging mass spectrometry and prospect for antitumor activity” (Scientific Reports, 2018)
Read-outs that look alike come from different tables or passages of the source.

How the values were obtained:
HER2 = system: HER2; design: method as in PMID 24837299; conditions: between 6 and 24 h after a single administration; cited from earlier work
[1] = Plasma concentration by LC-MS/MS in the breast cancer IVM; format: in vivo, mice; conditions: female, BALB/cAJcl-nu/nu, mouse, po, 50 mg/kg; for concentration at 4 h: 4 h after single oral 50 mg/kg; for concentration at 8 h: 8 h after single oral 50 mg/kg
Description: (§1) All experimental protocols were approved by the Institutional Animal Care and Use Committee of Shionogi & Co., Ltd (Osaka, Japan) and performed in accordance with the Guidelines for Animal Experiments of Shionogi & Co., Ltd, which meet the ethical standards required by the law and the guidelines about the experimental animals in Japan. Nude mice (BALB/cAJcl-nu/nu, CLEA Japan) were used for in vivo studies. All mice were female and six to nine weeks old at the time of implantation. […] Plasma was separated by centrifugation at 3,000 rpm for 15 min at 4 °C and stored at −80 °C until analysis. After blood sampling, brain tissues were immediately excised, frozen on dry ice, and stored at −80 °C prior to sectioning.
(§2) The mixture was stirred for 10 min and centrifuged at 5,000 rpm for 5 min at 10 °C, and 1 µL of the supernatant was injected into the LC-MS/MS system. An ultra-HPLC system (Nexera LC-20A, Shimadzu Corp., Kyoto, Japan) with a triple quadrupole mass spectrometer (API 5000^TM, AB Sciex, Forester City, CA, USA) was used for LC/MS/MS analysis. The LC-MS/MS system was controlled by Analyst 1.4.2 (AB Sciex) software. Chromatographic separation was performed using a Cadenza CD-C18 HT column (50 × 2.0 mm i.d., 3 µm; Imtakt Corp., Kyoto, Japan).

[2] = design: method as in PMID 25434923; conditions: human, cited from earlier work
[3] = Plasma exposure after single oral administration in nude mice; format: in vivo; conditions: mouse, single oral 50 mg/kg, read-out: Plasma exposure (AUC0–24 h)
[4] = Plasma concentration in the lung cancer IVM; format: in vivo, mice; conditions: female, BALB/cAJcl-nu/nu, mouse, 4 h after oral 100 mg/kg
Description: as §1, §2

[5] = system: patients with solid tumors; design: method as in PMID 25434923, PMID 25434923, PMID 25434923; conditions: phase I trials; cited from earlier work
[6] = Plasma and brain pharmacokinetics after single oral administration in mice implanted intracranially with MDA-MB-361 cells; conditions: for concentration at 8 h / Tmax / concentration at 0.5 h / concentration at 1 h / concentration at 2 h / concentration at 4 h / concentration at 24 h / AUC(0-t) / Cmax: female, mouse, po; for AUC0–24 h, brain / Cmax, brain: single oral 20 mg/kg, mice
Description: as §1, §2

[7] = Quantitative MALDI-IMS of drug in brain metastases of the breast cancer IVM (BR2, BR3); format: in vivo, mice; conditions: for concentration at 4 h / concentration at 8 h: female, BALB/cAJcl-nu/nu, mouse, tumor (brain metastasis) in brain sections, po, 50 mg/kg, IMS; for concentration at 4 h: 4 h after single oral 50 mg/kg; for concentration at 8 h: 8 h after single oral 50 mg/kg
Experimental: BTB integrity in the IVM was assessed by measuring the fluorescence intensity of Texas-Red® dextran in the metastatic regions or brain parenchyma. Metastatic regions were defined as cancer cell clusters with DAPI staining in the same brain section (Fig. 2E and Supplementary Fig. S2C).
as §1
(§3) In the experimental brain metastasis of breast cancer or lung cancer (IVM), a cell suspension containing 2.0 × 10^6 cells (BR2), 1.7 × 10^6 cells (BR3), or 4.0 × 10^5 cells (NCI-H1975-luc) was implanted into the left ventricle of anaesthetized mice (Supplementary Fig. S1). In the intracranial implantation mice model, the cell suspension containing 3.1 × 10^5 cells was implanted into the craniotomy region (2 mm to the left of the bregma and 1 mm anterior to the coronal suture). For measurement of bioluminescence, 0.2 mL of 10 mg/mL luciferin solution was injected intravenously into anesthetized mice via the tail vein and the photons emitted from tumor measured by IVIS Imaging System 200 (Caliper Life Sciences).
Frozen brain tissues were cut into 10-µm sections using a cryostat (Leica CM3050 S; Leica Microsystems Inc., Wetzlar, Germany) at −20 °C. Sections were thaw-mounted onto glass microscope slides (Superfrost; Thermo Fisher Scientific Inc.) and stored at −80 °C until use. […] Standard solutions were spotted onto the glass microscope slides at 1 µL.
Matrix-coated sections were analyzed using a linear ion trap mass spectrometer with a MALDI source (MALDI LTQ XL, Thermo Fisher Scientific Inc.) and a nitrogen laser (337 nm; 60 Hz). Laser energy and raster step size were set at 30 µJ and 100 µm, respectively. All compounds were detected in positive-ion mode using the product ion scans of their [M + H]^+ ions. […] Heme B was detected by MS3 (m/z 616 → 557 → 498) as a blood biomarker.
Spectral data were acquired using Xcalibur 2.0.7 software (Thermo Fisher Scientific Inc.) and the localization and concentration of all compounds in the brain sections were analyzed using Quantinetix 1.7.10 software (ImaBiotech, Loos, France). The fluorescence intensity of Texas-Red® dextran and immunostaining intensity of HER2 were analyzed using a BZ-X analyzer (Keyence). Statistical analyses were performed using SAS software (version 9.4).

EGFR = system: EGFR; design: method as in PMID 24837299; conditions: between 6 and 24 h after a single administration; cited from earlier work
[8] = Quantitative MALDI-IMS of drug in brain metastases of the lung cancer IVM (NCI-H1975-luc); format: in vivo, mice; conditions: female, BALB/cAJcl-nu/nu, mouse, tumor (brain metastasis) in brain sections, 4 h after oral 100 mg/kg
Description: as §1, with “After blood sampling, brain tissues were immediately excised, frozen on dry ice, and stored at −80 °C prior to sectioning.” left out
as §3, with “In the intracranial implantation mice model, the cell suspension containing 3.1 × 10^5 cells was implanted into the craniotomy region (2 mm to the left of the bregma and 1 mm anterior to the coronal suture).” left out, “Sciences). […]” for “Sciences).”
Matrix-coated sections were analyzed using a linear ion trap mass spectrometer with a MALDI source (MALDI LTQ XL, Thermo Fisher Scientific Inc.) and a nitrogen laser (337 nm; 60 Hz). […] All compounds were detected in positive-ion mode using the product ion scans of their [M + H]^+ ions. […]

[9] = BALB/cAJcl-nu/nu nude, brain, 20 mg/kg
[10] = BALB/cAJcl-nu/nu, brain, 20 mg/kg
[11] = BALB/cAJcl-nu/nu, plasma, 20 mg/kg

## CC#CC(=NOCC1COCCN1)c1ccc2ncnc(Nc3ccc(OCc4cccc(F)c4)c(Cl)c3)c2c1 (stereo not shown) [Epertinib]
HER2
  Inhibitory activity on HER2 phosphorylation at 24 h: persisted at 24 h
[1]; BR2 IVM
  concentration at 4 h: 1440 ± 50 ng/mL
[1]; BR3 IVM
  concentration at 4 h: 1300 ± 120 ng/mL
  concentration at 8 h: 920 ± 300 ng/mL
[2]; effective dose 800 mg/day
  Plasma exposure (AUC0–24 h): 9170 ng·h/mL
[3]
  AUC(0-t): 9980 ng·h/mL
[4]
  concentration at 4 h: 2760 ± 660 ng/mL
[5]
  Tolerability: well tolerated
[6]; 4 h after oral administration, 20 mg/kg
  Brain concentration of epertinib relative to that of lapatinib: approximately twice
[6]; [9]
  concentration at 8 h: 23.8 ng/g
[6]; [10]
  Tmax: 4 h
  concentration at 0.5 h: 10.2 ng/g
  concentration at 1 h: 12.8 ng/g
  concentration at 2 h: 23 ng/g
  concentration at 4 h: 36.3 ng/g
  concentration at 24 h: 1.7 ng/g
[6]; BALB/cAJcl-nu/nu, in vivo, 20 mg/kg
  concentration at 0.5 h: 99.8 ng/mL
[6]; [11]
  AUC(0-t): 1260 ng·h/mL
  Cmax: 145 ng/mL
  Tmax: 2 h
  concentration at 1 h: 113 ng/mL
  concentration at 2 h: 145 ng/mL
  concentration at 4 h: 115 ng/mL
  concentration at 8 h: 54.7 ng/mL
  concentration at 24 h: 2.1 ng/mL
[6]
  AUC0–24 h, brain: 409 ng·h/g
  Cmax, brain: 36 ng/g
[7]; breast cancer IVM
  Concentration measured in brain metastases of the IVM with breast cancer: 5.2 µM
[7]; breast cancer IVMs, 4 h after administration
  Tumor concentration of epertinib relative to that of lapatinib: > 10 times
[7]; BR2 IVM
  concentration at 4 h: 2930 ng/g
[7]; BR3 IVM
  concentration at 4 h: 2700 ng/g
  concentration at 8 h: 2710 ng/g
EGFR
  Inhibitory activity on EGFR phosphorylation at 24 h: persisted at 24 h
[8]
  concentration at 4 h: 6700 ng/g

## CS(=O)(=O)CCNCc1ccc(-c2ccc3ncnc(Nc4ccc(OCc5cccc(F)c5)c(Cl)c4)c3c2)o1 [Lapatinib, N-{3-chloro-4-[(3-fluorobenzyl)oxy]phenyl}-6-[5-({[2-(methylsulfonyl)ethyl]amino}methyl)-2-furyl]-4-quinazolinamine, reference compound]
HER2
  Inhibitory activity on HER2 phosphorylation at 24 h: largely disappeared
[1]; BR2 IVM
  concentration at 4 h: 6690 ± 1310 ng/mL
[1]; BR3 IVM
  concentration at 4 h: 2140 ± 220 ng/mL
  concentration at 8 h: 630 ng/mL
[2]; effective dose 1250 mg/day
  Plasma exposure (AUC0–24 h): 27300 ng·h/mL
[3]
  AUC(0-t): 34100 ng·h/mL
[4]
  concentration at 4 h: 9360 ± 1780 ng/mL
[6]; [9]
  concentration at 8 h: 5.8 ng/g
[6]; [10]
  Tmax: 4 h
  concentration at 0.5 h: 11.8 ng/g
  concentration at 1 h: 15.7 ng/g
  concentration at 2 h: 10 ng/g
  concentration at 4 h: 17 ng/g
  concentration at 24 h: 0.4 ng/g
[6]; [11]
  AUC(0-t): 4110 ng·h/mL
  Cmax: 985 ng/mL
  Tmax: 0.5 h
  concentration at 0.5 h: 984 ng/mL
  concentration at 1 h: 763 ng/mL
  concentration at 2 h: 413 ng/mL
  concentration at 4 h: 461 ng/mL
  concentration at 8 h: 99.6 ng/mL
  concentration at 24 h: 5.4 ng/mL
[6]
  AUC0–24 h, brain: 144 ng·h/g
  Cmax, brain: 17 ng/g
[7]; BR2 IVM
  concentration at 4 h: 160 ng/g
[7]; BR3 IVM
  concentration at 4 h: 200 ng/g
  concentration at 8 h: 190 ng/g
EGFR
  Inhibitory activity on EGFR phosphorylation at 24 h: largely disappeared
[8]
  concentration at 4 h: 7080 ng/g
